Test results published in US20190254274A1, “COMPOSITE MATERIALS DESIGNED TO POSSES BIO-ACTIVE PROPERTIES AND SYNTHESIS AND USES THEREO” (ADA Foundation, priority 2018, published 2019).

Key:
Format in all cases: cell-based
[1] = tested on: TNF-alpha expression in primary human CD14+ cells; experiment: TNF-alpha ELISA in LPS-stimulated human CD14+ monocyte-derived macrophages; details: 2 hr LPS+4 hr Tx
Protocol: All chemicals, unless otherwise indicated, were procured from Sigma-Aldrich and used without additional purification. Stock solutions of Docosahexaenoic acid (DHA) in Dimethyl Sulfoxide (DMSO), Aspirin in physiologically buffered saline (PBS, pH 7.4) were prepared prior to their use. E. Coli derived Lipopolysaccharide (LPS) was reconstituted at 1 ug/mL, sterile filtered, and stored at −80 C until needed. RAW 264.7 murine macrophage cell line was obtained from ATCC (Manassas, Va.). Cells were thawed at passage 5 or 6 and were maintained in DMEM complete growth media supplemented with 10% FBS (Hyclone, GE Healthcare)+1% Penn/strep (Gibco) until needed. Peripheral blood derived primary human CD14+monocytes (BioreclamationlVT, Albany, N.Y.) were also maintained in DMEM growth media until needed. […]
(§1) Following each treatment, sample media was tested for inflammatory tumor necrosis factor alpha (TNF-alpha) expression using a commercially available sandwich ELISA kits designed for either mouse or human cells (R&D Systems). Samples showing reduction in TNF-alpha were further analyzed using the Resolvin D1 and Resolvin D2 ELISA kits (Cayman Chemical). Mean and standard deviations were calculated for each analyte. ELISA results were normalized to the total protein readings of each well. […]

[2] = tested on: Resolvin D1 (RvD1) expression and release; experiment: Resolvin D1 ELISA, LPS-challenged human macrophages
Protocol: (§2) All chemicals, unless otherwise indicated, were procured from Sigma-Aldrich and used without additional purification. Stock solutions of Docosahexaenoic acid (DHA) in Dimethyl Sulfoxide (DMSO), Aspirin in physiologically buffered saline (PBS, pH 7.4) were prepared prior to their use. E. Coli derived Lipopolysaccharide (LPS) was reconstituted at 1 ug/mL, sterile filtered, and stored at −80 C until needed. RAW 264.7 murine macrophage cell line was obtained from ATCC (Manassas, Va.). Cells were thawed at passage 5 or 6 and were maintained in DMEM complete growth media supplemented with 10% FBS (Hyclone, GE Healthcare)+1% Penn/strep (Gibco) until needed. Peripheral blood derived primary human CD14+monocytes (BioreclamationlVT, Albany, N.Y.) were also maintained in DMEM growth media until needed. Prior to experimentation, monocytes were differentiated to macrophages by using macrophage colony stimulating factor (M-CSF) at 25 ng/mL in media for up to three days or until cells had reached near confluence (˜95%). RAW 264.7 cells were seeded at roughly 5,000 cells per well in a 96-well plate and allowed to grow to near confluence. At confluence, cells were pre-treated with LPS for 2 hours. At the 2-hour mark, cells were treated with DMEM media containing DMSO (1% w/w, negative control), Aspirin (positive control, 10 nmol/L), DHA (100 umol/L) or a combination of the two. Bio-active composite material Hydroxyapatite-Docosahexaenoic acid (HA-DHA) was dispersed in DMSO and delivered at similar concentrations as DHA alone (described above). Cells were harvested at 2, 4, and 6 hours after LPS stimulation. Human CD14+ cells were seeded at roughly 3.3*10^4 cells per well in a 96-well plate and treated with MCSF until full confluence. Cells were treated with LPS for 2 hours, at which time they were exposed to the same treatments described above for RAW 264.7 cells. Cells were harvested at 4 and 6 hours. […]
as §1
(§3) To investigate further the anti-inflammatory effects the inventors observed in both human and murine macrophages challenged with pathogenic LPS and to determine if the bio-active composite material HA-DHA on its' own and in combination with Aspirin induces formation of pro-resolution mediators, the inventors measured Resolvin production secreted from challenged human macrophages.

[3] = tested on: Resolvin D2 (RvD2) expression and release; experiment: Resolvin D2 ELISA, LPS-challenged human macrophages
Protocol: as §2, §1, §3

[4] = earlier time point (FIG. 19, Table 2)
[5] = 2 hours LPS + 6 hours treatment (Table 5)

With `CC(=O)Oc1ccccc1C(=O)O` [Aspirin] the “TNF-alpha expression (Mean)” value [1] was 9.1 pg/µg, the “Resolvin D1 (RvD1) expression and release (Mean)” value (“Resolvin D1” below) ([2]; 2-hour+6-hour Tx (Table 3)) was 16.96 and the “Resolvin D1” value [2, 4] was 18.87. The “Resolvin D2 (RvD2) expression (Mean)” value ([3]; 2 hour LPS+4 hr Tx (Table 4)) was 25.02 and the “Resolvin D2 (RvD2) expression (Mean)” value [3, 5] was 73.25.
With `CC/C=C\C/C=C\C/C=C\C/C=C\C/C=C\C/C=C\CCC(=O)O` [DHA, 4Z, 7Z, 10Z, 13Z, 16Z, 19Z)-docosa-4,7,10,13,16,19-hexaenoic acid] the “TNF-alpha expression (Mean)” value [1] was 10.5 pg/µg, the “Resolvin D1” value ([2]; 2-hour+6-hour Tx (Table 3)) was 678 and the “Resolvin D1” value [2, 4] was 771.1. For the same molecule, the “Resolvin D2 (RvD2) expression (Mean)” value ([3]; 2 hour LPS+4 hr Tx (Table 4)) was 194.2 and the “Resolvin D2 (RvD2) expression (Mean)” value [3, 5] was 161.9.
